Experimental data from publication PMC3853091, “Antiproliferative effects of lanreotide autogel in patients with progressive, well-differentiated neuroendocrine tumours: a Spanish, multicentre, open-label, single arm phase II study” (BMC Cancer, 2013).

Legend:
[1] = test system: advanced pancreatic NET; conditions: patients with advanced pancreatic NET; cited from earlier work
Description: Other treatment modalities that have shown promise as antiproliferative agents for advanced NET include mTOR or tyrosine kinase inhibitors. […] The combination of everolimus and octreotide LAR also stabilised tumour growth in patients with carcinoid NET [32].

[2] = Lanreotide trough serum levels (validated RIA with 125I-labelled lanreotide); assay type: in vivo, human (patients); conditions: human, subcutaneous, mean ± SD
Experimental: Efficacy (radiological, biochemical and clinical) and pharmacokinetic (PK) assessments were performed every 12 weeks and at the final study evaluation, 28 (±5) days after the final lanreotide dose. AEs and concomitant treatments were recorded at each 4-weekly treatment visit and at the final evaluation.
(§1) Safety analyses included AEs (coded using the Medical Dictionary for Regulatory Activities [MedDRA] version 11.1), vital signs, and serum haematology and biochemistry. Blood samples for analysis of lanreotide trough serum levels and, if applicable, for evaluation of the presence and specificity of anti-lanreotide antibodies were collected at screening and at weeks 8, 20, 32, 44, 56, 68 and 92, just before drug administration.
(§2) Tumour biomarkers, serum lanreotide concentrations and anti-lanreotide antibodies were analysed in a central laboratory. Serum CgA levels were determined using a radioimmunoassay (RIA) with coefficients of variation (CVs) of 6–10% (Cisbio International, Gif-sur-Yvette, France), and urinary 5-HIAA levels were measured using high-performance liquid chromatography with CVs of 4–6% (Bio-rad Laboratories GmbH, München, Germany). Circulating lanreotide concentrations were measured using a validated RIA with [^125I]-labelled lanreotide as a competitor for the quantification of lanreotide. During assay validation, the lower limit of quantification for lanreotide was 0.078 ng/mL and CVs were 2.3–13.6%. Anti-lanreotide antibodies were detected using a radioimmunoprecipitation assay (RIPA) with […] for immune-complex precipitation and [^125I]-labelled lanreotide as the tracer. Results were expressed as the percentage of precipitation. During validation, the assay sensitivity was 1/3,200,000 using a rabbit polyclonal anti-lanreotide antibody and intra- and inter-assay precision values were <5.7% and <5.3%, respectively. The screening assay cutpoint was determined as the 95th percentile of the distribution obtained with pre-treatment samples from 22 patients from the study. […]

[3] = Anti-lanreotide antibodies (radioimmunoprecipitation assay with confirmatory competition); assay type: in vivo, human (patients); conditions: RIPA
Description: as §1
as §2, with “precipitation.” for “precipitation. During validation, the assay sensitivity was 1/3,200,000 using a rabbit polyclonal anti-lanreotide antibody and intra- and inter-assay precision values were <5.7% and <5.3%, respectively. The screening assay cutpoint was determined as the 95th percentile of the distribution obtained with pre-treatment samples from 22 patients from the study.”

CCN(CC)CCNC(=O)c1c(C)[nH]c(/C=C2\C(=O)Nc3ccc(F)cc32)c1C [sunitinib]
PFS [1]: 11.4 months

CO[C@H]1C[C@@H]2CC[C@@H](C)[C@@](O)(O2)C(=O)C(=O)N2CCCC[C@H]2C(=O)O[C@H]([C@H](C)C[C@@H]2CC[C@@H](OCCO)[C@H](OC)C2)CC(=O)[C@H](C)/C=C(\C)[C@@H](O)[C@@H](OC)C(=O)[C@H](C)C[C@H](C)/C=C/C=C/C=C/1C [everolimus]
PFS [1]: 11.0 months

CC(C)[C@@H]1NC(=O)[C@H](CCCCN)NC(=O)[C@@H](Cc2c[nH]c3ccccc23)NC(=O)[C@H](Cc2ccc(O)cc2)NC(=O)[C@@H](NC(=O)[C@H](N)Cc2ccc3ccccc3c2)CSSC[C@@H](C(=O)N[C@H](C(N)=O)[C@@H](C)O)NC1=O [lanreotide]
level at 3360 h ([2]; week 20, after five injections of 120 mg every 28 days, n = 27, read-out: Steady-state trough serum lanreotide level): 5.2 ± 2 ng/mL
level at 5376 h ([2]; week 32, 120 mg every 28 days, read-out: Mean trough serum lanreotide level (maximum)): 6 ± 2.9 ng/mL
level at 15456 h ([2]; week 92, 120 mg every 28 days, read-out: Mean trough serum lanreotide concentration): 5.3 ± 2 ng/mL
Patients with anti-lanreotide antibodies detected ([3]; assessments after week 8, two patients, one of them temporarily): 7%
Anti-lanreotide antibodies in serum ([3]; week 8, all 25 patients tested): negative
